According to US5591741A, “Fungicidal spiroheterocyclic derivatives” (American Cyanamid Company, priority 1993, dated 1997):

What was measured:
Plasmopara viticola = assay: Antisporulant activity against vine downy mildew (PVA); type: in vivo; conditions: vine leaves, antisporulant foliar spray, 600 ppm, 750 l/ha
Summary of the method: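 Cabernet Sauvignon vines (~8 cm) inoculated on lower leaf surfaces with 5×10^4 zoosporangia/ml, held 24 h at 21° C high humidity then 24 h glasshouse. Infected leaves sprayed underside with 600 ppm compound in 1:1 water/acetone, 0.04% Tween 20, 750 l/ha; 96 h glasshouse, 24 h humidity. Sporulating leaf area rated versus control.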

Alternaria solani = assay: Activity against tomato early blight (AS); type: in vivo; conditions: Table VI; tomato seedlings, contact prophylactic foliar spray, 4 days
Summary of the method: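 Plants were challenged with A. solani conidia (10^4 spores/ml) 24 h after a protective foliar spray of compound in 50:50 acetone/water plus 0.04% Tween 20. Held humid at 21° C for 4 days, then percent leaf area with lesions was scored as a rating relative to controls.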

Botrytis cinerea = assay: Direct protectant activity against broad bean grey mould (BCB); type: in vivo; conditions: direct protectant foliar spray, 600 ppm, 4 days
Summary of the method: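 Protectant foliar test: lesion coverage assessed 4 days after inoculation and rated relative to untreated or diluent-sprayed plants. Compound applied at 600 ppm to cv The Sutton leaves 24 h before 10^6 conidia/ml suspension; incubation at 22 °C in high humidity.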

Leptosphaeria nodorum = assay: Activity against wheat leafspot (LN); type: in vivo; conditions: direct therapeutic foliar spray, 600 ppm, 6-8 days
Summary of the method: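 Therapeutic foliar spray: compound at 600 ppm applied to single-leaf wheat (cv Norman) 24 h after inoculation with 1.5×10^6 conidia/ml. Disease control scored after 6-8 days at 22° C and 70% humidity as lesions per leaf versus untreated or diluent-sprayed controls.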

[1] = system: Erysiphe graminis f.sp. hordei; assay: Activity against barley powdery mildew, direct therapeutic (EGT); type: in vivo; conditions: direct therapeutic foliar spray, 600 ppm, up to 7 days
Summary of the method: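 A curative spray at 600 ppm was applied to single-leaf Golden Promise barley inoculated with powdery mildew conidia the previous day. After up to 7 days at 18 °C and 40% humidity, disease control was rated from percent leaf area sporulating relative to untreated or diluent-sprayed controls.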

[2] = system: Erysiphe graminis f.sp. hordei; assay: Direct protectant activity against barley powdery mildew (EGP); type: in vivo; conditions: direct protectant foliar spray, 8 days
Summary of the method: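 Rating reflects percentage of leaf area with sporulation compared with untreated or diluent-sprayed controls. Protectant spray was applied to single-leaf barley (cv Golden Promise) 24 h before conidia inoculation. Plants were kept at 18 °C and 40% RH throughout, with 8 days of disease development.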

Phytophthora infestans = type: in vivo; conditions: tomato, direct protectant foliar spray
[3] = system: Pseudocercosporella herpotrichoides; assay: Activity against wheat eyespot in-vitro (PHI); type: cell-based; conditions: 10 ppm, 10 days, 20° C., mycelial growth
Summary of the method: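 Mycelial growth was scored after 10 days at 20 °C against untreated or diluent controls. The broth was half-strength potato dextrose, holding 10 ppm test compound (from acetone) and 5×10^4 fragments/ml of the eyespot fungus.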

Rhizoctonia solani = assay: Activity against Rhizoctonia in-vitro (RSI); type: cell-based; conditions: 10 ppm, 10 days, 20° C., mycelial growth
Summary of the method: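 Compound at a final 10 ppm (acetone vehicle) in half-strength PDB, inoculated with 5×10^4 fragments/ml of shaken-culture R. solani mycelium. After incubation at 20° C for 10 days, growth scored as a rating versus untreated or diluent-treated controls.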

Venturia inaequalis = assay: Activity against apple scab in-vitro (VII); type: cell-based; conditions: 10 ppm, 10 days, 20° C., mycelial growth
Summary of the method: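 V. inaequalis propagules (5×10^4/ml, malt agar-grown) were exposed in half-strength PDB to 10 ppm final test compound delivered in acetone. Growth was scored after incubation for 10 days at 20° C, as a rating relative to untreated or diluent-sprayed controls.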

Pyricularia oryzae = type: in vivo; conditions: rice seedlings, direct therapeutic foliar spray, 600 ppm, 4-5 days

Compound	disease control rating PVA (Plasmopara viticola)	disease control rating AS (Alternaria solani)	disease control rating BCB (Botrytis cinerea)	disease control rating LN (Leptosphaeria nodorum)	disease control rating EGT [1]	disease control rating EGP [2]	disease control rating PIP (Phytophthora infestans)	disease control rating PHI [3]	disease control rating RSI (Rhizoctonia solani)	disease control rating VII (Venturia inaequalis)	disease control rating PO (Pyricularia oryzae)
CC(C)(C1CCCCC1)C1CCC2(CC1)CC(NC1CCCCC1)CO2 (stereo not drawn) [Compound 142]	0 (less than 50% disease control)	0 (less than 50% disease control)	0 (less than 50% disease control)	0 (less than 50% disease control)	2 (greater than 80% disease control)	2 (greater than 80% disease control)	1 (about 50-80% disease control)	2 (greater than 80% disease control)	2 (greater than 80% disease control)	2 (greater than 80% disease control)	0 (less than 50% disease control)
CC(C)CN(CC(C)C)C1COC2(CCC(C(C)(C)C)CC2)C1 (stereo not drawn) [Compound 143]	0 (less than 50% disease control)	0 (less than 50% disease control)	0 (less than 50% disease control)	0 (less than 50% disease control)	2 (greater than 80% disease control)	2 (greater than 80% disease control)	0 (less than 50% disease control)	0 (less than 50% disease control)	0 (less than 50% disease control)	0 (less than 50% disease control)	0 (less than 50% disease control)
CC(C)(C)C1CCC2(CC1)CC(CN)CO2 (stereo not drawn) [Compound 181, 8-t-Butyl-3-aminomethyl-1-oxaspiro(4,5)decane]	0 (less than 50% disease control)	0 (less than 50% disease control)	0 (less than 50% disease control)	0 (less than 50% disease control)	2 (greater than 80% disease control)	2 (greater than 80% disease control)	2 (greater than 80% disease control)	0 (less than 50% disease control)	0 (less than 50% disease control)	0 (less than 50% disease control)	0 (less than 50% disease control)
CC(C)(C)C1CCC2(CC1)CC(CNC1CCCCC1)CO2 (stereo not drawn) [Compound 182, 8-t-Butyl-3-cyclohexylaminomethyl-1-oxaspiro(4,5)decane]	0 (less than 50% disease control)	0 (less than 50% disease control)	1 (about 50-80% disease control)	1 (about 50-80% disease control)	2 (greater than 80% disease control)	2 (greater than 80% disease control)	0 (less than 50% disease control)	1 (about 50-80% disease control)	2 (greater than 80% disease control)	2 (greater than 80% disease control)	0 (less than 50% disease control)
CCCCCCCCNCC1COC2(CCC(C(C)(C)C)CC2)C1 (stereo not drawn) [Compound 183, 8-t-butyl-3-n-octylaminomethyl-1-oxaspiro(4,5)-decane]	0 (less than 50% disease control)	0 (less than 50% disease control)	0 (less than 50% disease control)	0 (less than 50% disease control)	2 (greater than 80% disease control)	2 (greater than 80% disease control)	1 (about 50-80% disease control)	1 (about 50-80% disease control)	2 (greater than 80% disease control)	2 (greater than 80% disease control)	0 (less than 50% disease control)
CCCCCCNCC1COC2(CCC(C(C)(C)C)CC2)C1 (stereo not drawn) [Compound 184, 8-t-butyl-3-n-hexylaminomethyl-1-oxaspiro(4,5)decane]	0 (less than 50% disease control)	0 (less than 50% disease control)	2 (greater than 80% disease control)	0 (less than 50% disease control)	2 (greater than 80% disease control)	2 (greater than 80% disease control)	0 (less than 50% disease control)	1 (about 50-80% disease control)	2 (greater than 80% disease control)	2 (greater than 80% disease control)	0 (less than 50% disease control)
CC(C)(C)C1CCC2(CC1)CC(CNC1CCCCC1)CO2 (stereo not drawn) [Compound 185]	0 (less than 50% disease control)	1 (about 50-80% disease control)	1 (about 50-80% disease control)	0 (less than 50% disease control)	2 (greater than 80% disease control)	2 (greater than 80% disease control)	0 (less than 50% disease control)	0 (less than 50% disease control)	0 (less than 50% disease control)	0 (less than 50% disease control)	0 (less than 50% disease control)
CC(C)CN(CC(C)C)CC1COC2(CCC(C(C)(C)C)CC2)C1 (stereo not drawn) [Compound 186]	0 (less than 50% disease control)	0 (less than 50% disease control)	0 (less than 50% disease control)	0 (less than 50% disease control)	0 (less than 50% disease control)	2 (greater than 80% disease control)	0 (less than 50% disease control)	0 (less than 50% disease control)	0 (less than 50% disease control)	0 (less than 50% disease control)	0 (less than 50% disease control)
CC(C)(C)C1CCC2(CC1)CC(CCNC1CCCCC1)CO2 (stereo not drawn) [Compound 189, 8-t-Butyl-3-cyclohexylaminoethyl-1-oxaspiro(4,5)decane]	0 (less than 50% disease control)	0 (less than 50% disease control)	0 (less than 50% disease control)	0 (less than 50% disease control)	2 (greater than 80% disease control)	2 (greater than 80% disease control)	1 (about 50-80% disease control)	0 (less than 50% disease control)	0 (less than 50% disease control)	1 (about 50-80% disease control)	0 (less than 50% disease control)
